Laboratory results reported in patent US7122524B2, “Tripeptides and tripeptide derivatives for the treatment of postlesional disease of the nervous system” (Neurotell AG, priority 2002, dated 2006).
Converted amounts (≈) assume the structure as drawn. Structures can show the parent of a compound that is named as a salt. Where two headings read alike, the source gives them in different places. Residues, ends and D or L forms follow the SMILES beside them.

How the values were obtained:
[1] = literature value; cited from earlier work
[2] = system: cholinergic nerve ends; test: Sprouting assay (dendrite length after septum lesion); assay type: in vivo, rat; conditions: rats, septum of hippocampus destroyed; 20 mg/per kg bodyweight per day over at least 15 days
Protocol: The sprouting of nerve cells is determined by the length of the dendrites. According to the present invention, the influence of the substances used according to the present invention on the sprouting is studied in an in vivo assay.
The septum of the hippocampus of 10 rats was destroyed (see Hagg et al; Exp. Neurol., 101, 303–312). 21 days after the impairment of the hippocampus was unambiguous, as confirmed by a behavioural test, the rats were divided into two groups of 5 rats each. 20 mg/per kg bodyweight per day of the substance used according to the present invention (GFPNH2) was administered to the test group of 5 rats over at least 15 days.
After administration, the animals were killed, and the cholinergic nerve ends were observed by a CAT (choline-acetyl-transferase) immunofluorescence assay under a fluorescence microscope. The length of the dendrites was measured thereby.

[3] = Metabolic stability in rat hepatocytes; assay type: in vitro ADME; conditions: male, Wistar, 10^6 cells/ml, analysed during 24 h, read-out: T½ (converted)
Text: Hepatocytes from adult male Wistar rats (IFFA Credo, L'Arbresle, France) were isolated by an in situ liver perfusion using collagenase (purchased from Sigma (St. Louis, Mo., U.S.A), according to a procedure described by Seglen (Preparation of isolated rat liver cell, Methods Cell Biol. 13, 29–83, 1976) and modified by Williams et al. (Rat hepatocyte primary culture. III. Improved dissociation and attachment techniques and the enhancement of survival by culture medium, in vitro 13: 809–817, 1977). After estimation of cell viability by the peripheral refractoriness of intact cells in phase contrast microscopy and the trypan blue test, freshly isolated hepatocytes were washed in basal William's medium E (WME) supplemented with 10% (v/v) fetal calf serum, 70 μM cortisol, 2 mM L-glutamine, 10 mM HEPES buffer, and 4 mM NaOH. They were then plated at a density of 0,5×10^6 cells per 50 mm plastic cell culture dishes in the medium described previously for cell attachment for 6 hours at 37° C. Subsequently, hepatocytes were washed three times in serum- and cholesterol-free medium (SF-WME) containing 4 g/l bovine albumin fraction V (Sigma) as transporter for 7.8 μM of a mixture of free fatty acids (Cheesebeuf M and Padieu P, expression of major liver metabolic function in long-term serum-free rat liver epithelial cell lines. In vitro 20: 780–795, 1984), and then were transferred to the SF-WME supplemented with the various tripeptides of formula (I). For each group of experiments, hepatocytes from three or four livers were used.
Significances are calculated using Student's t-test. Values are expressed as mean±SD.
• Method: (Hepatocytes in suspension) • Plasma sample: Precipitation with trichloracetic acid. • Centrifugation and aliquot of supernatant to HPLC. • […] column: Nucleosil C18 (250×4,6 mm). • Buffer TEAP 0,1%/CH3CN, 1 ml/min • Readings at 210 nm. […]
Each substance of each concentration will be analysed 10 times during 24 h (1 h, 2 h, 4 h, 6 h, 8 h, 10 h, 12 h, 16 h, 20 h, 24 h).

[4] = physchem
[5] = freshly isolated rat hepatocytes (in suspension)

Molecule: C[C@]12CCC(=O)C=C1CC[C@@H]1[C@@H]2[C@@H](O)C[C@@]2(C)[C@H]1CC[C@]2(O)C(=O)CO [Hydrocortisone]
- flux rate published by Kansy et al. [1]: 52%

Molecule: NCC(=O)N[C@@H](Cc1ccccc1)C(=O)N1CCC[C@H]1C(N)=O [HCl-Gly-Phe-ProNH2, glycyl-L-phenylalanyl-L-prolineamide] (H-Gly-Phe-Pro-NH2)
- increase of the dendrite length [2]: 8 to 10 μm
- predicted absorption after peroral application (PAMPA classification) (PAMPA): weakly absorbed

Molecule: thyreoliberin [TRH, reference compound]
- predicted absorption after peroral application (PAMPA classification) (classification by flux rate): weakly absorbed

Molecule: CC[C@H](C)[C@H](NC(=O)[C@H]([C@@H](C)CC)N(CC)CC)C(=O)N1CCC[C@H]1C(N)=O [N,N-Diethyl-Ile-Ile-ProNH2, N,N-diethyl-isoleucyl-isoleucyl-prolineamide]
- half-life [3, 5]: 3.4 h
- predicted absorption after peroral application (PAMPA classification) (PAMPA): medium to highly absorbed
- solubility [4]: 1 mg/mL (≈ 2520 µM)

Molecule: CCNC(=O)[C@@H]1CCCN1C(=O)[C@H](Cc1ccccc1)NC(=O)[C@H]([C@@H](C)CC)N(CC)CC [N,N-Diethyl-Ile-Phe-ProNHEt, N,N-diethyl-isoleucyl-phenylalanyl-L-proline ethylamide]
- half-life [3, 5]: 4.5 h
- predicted absorption after peroral application (PAMPA classification) (PAMPA): medium to highly absorbed
- solubility [4]: 1 mg/mL (≈ 2180 µM)

Molecule: CC[C@H](C)[C@H](NC(=O)CN(CC)CC)C(=O)N1CCC[C@H]1C(N)=O [N,N-Diethyl-Gly-Ile-ProNH2]
- half-life ([3]; freshly isolated rat hepatocytes): 2.8 h
- predicted absorption after peroral application (PAMPA classification) (PAMPA): medium to highly absorbed

Molecule: CC[C@H](C)[C@H](NC(C)C)C(=O)N[C@H](C(=O)N1CCC[C@H]1C(N)=O)[C@@H](C)CC [N-Isopropyl-Ile-Ile-ProNH2]
- predicted absorption after peroral application (PAMPA classification) (PAMPA): medium to highly absorbed

Molecule: O=c1ccc2ccccc2o1 [Coumarin]
- flux rate published by Kansy et al. [1]: 66%
